Test results as given in patent US12077503B2, “Substituted cyclic amides and their use as herbicides” (FMC CORPORATION, priority 2015, dated 2024).
Where two headings read alike, the source gives them in different places.

Assays:
Type in all cases: in vivo
[1] = tested on: sedge, umbrella (small-flower umbrella sedge, Cyperus difformis); experiment: Test B flooded paddy test; conditions: Cyperus difformis, 250 g ai/ha, Flood; 0 to 100 scale where 0 is no effect and 100 is complete control; read-out: Sedge, Umbrella plant response rating
Procedure, shortened: (§1)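 Compound goes directly into floodwater once pots are flooded 3 cm above soil, targeting plants at two leaves; the water depth is then held for the test duration. Plants sit 13–15 d in a greenhouse and are rated visually, 100 denoting complete control.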

rice (Oryra sativa) = experiment: Test B flooded paddy test; conditions: Oryza sativa, 250 g ai/ha, Flood; 0 to 100 scale where 0 is no effect and 100 is complete control; read-out: Rice plant response rating
Procedure, shortened: as §1

[2] = tested on: ducksalad (Heteranthera limosa); experiment: Test B flooded paddy test; conditions: Heteranthera limosa, 250 g ai/ha, Flood; 0 to 100 scale where 0 is no effect and 100 is complete control; read-out: Ducksalad plant response rating
Procedure, shortened: as §1

[3] = tested on: barnyardgrass (Echinochloa crus-galli); experiment: Test B flooded paddy test; conditions: Echinochloa crus-galli, 250 g ai/ha, Flood; 0 to 100 scale where 0 is no effect and 100 is complete control; read-out: Barnyardgrass plant response rating
Procedure, shortened: as §1

[4] = tested on: giant foxtail (Setaria faberii); experiment: Test A preemergence; conditions: Setaria faberi, pre-emergence, 240 h, preemergence, 0 to 100 scale where 0 is no effect and 100 is complete control, read-out: Foxtail, Giant plant response rating; for pest or weed control at 125 g/ha: 125 g ai/ha, visual injury rating, approximately 10 d; for pest or weed control at 500 g/ha: 500 g ai/ha
Procedure, shortened: (§2)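 Preemergence soil spray on seeded pots or post-emergence spray on 1–2 leaf plants, in loam–sand blend. Greenhouse ~10 d. Visual rating 0–100 against untreated plants.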

[5] = tested on: pigweed (Amaranthus retroflexus); experiment: Test A preemergence; conditions: Amaranthus retroflexus, pre-emergence, 240 h, preemergence, 0 to 100 scale where 0 is no effect and 100 is complete control, read-out: Pigweed plant response rating; for pest or weed control at 125 g/ha: 125 g ai/ha, visual injury rating, approximately 10 d; for pest or weed control at 500 g/ha: 500 g ai/ha
[6] = tested on: ryegrass, Italian (Italian ryegrass, Lolium multiflorum); experiment: Test A preemergence; conditions: Lolium multiflorum, pre-emergence, 240 h, preemergence, 0 to 100 scale where 0 is no effect and 100 is complete control, read-out: Ryegrass, Italian plant response rating; for pest or weed control at 125 g/ha: 125 g ai/ha, visual injury rating, approximately 10 d; for pest or weed control at 500 g/ha: 500 g ai/ha
Procedure, shortened: as §2

Kochia (Kochia scoparia) [7] = experiment: Test A preemergence; conditions: Bassia scoparia, pre-emergence, 240 h, preemergence, 0 to 100 scale where 0 is no effect and 100 is complete control, read-out: Kochia plant response rating; for pest or weed control at 125 g/ha: 125 g ai/ha, visual injury rating, approximately 10 d; for pest or weed control at 500 g/ha: 500 g ai/ha
Procedure, shortened: as §2

[8] = tested on: barnyardgrass (Echinochloa crus-galli); experiment: Test A preemergence; conditions: Echinochloa crus-galli, pre-emergence, 240 h, preemergence, 0 to 100 scale where 0 is no effect and 100 is complete control, read-out: Barnyardgrass plant response rating; for pest or weed control at 125 g/ha: 125 g ai/ha, visual injury rating, approximately 10 d; for pest or weed control at 500 g/ha: 500 g ai/ha
Procedure, shortened: as §2

[9] = tested on: ragweed (common ragweed, Ambrosia elatior); experiment: Test A preemergence; conditions: Ambrosia artemisiifolia, pre-emergence, 240 h, preemergence, 0 to 100 scale where 0 is no effect and 100 is complete control, read-out: Ragweed plant response rating; for pest or weed control at 125 g/ha: 125 g ai/ha, visual injury rating, approximately 10 d; for pest or weed control at 500 g/ha: 500 g ai/ha
Procedure, shortened: as §2

[10] = tested on: ryegrass, Italian (Italian ryegrass, Lolium multiflorum); experiment: Test A postemergence; conditions: Lolium multiflorum, post-emergence, 240 h; for pest or weed control at 125 g/ha: 125 g ai/ha, visual injury vs untreated controls after approx. 10 d, 0 = no effect, 100 = complete control, read-out: Ryegrass, Italian plant response rating (0 to 100 scale); for pest or weed control at 500 g/ha: 500 g ai/ha
Procedure, shortened: as §2

[11] = tested on: blackgrass (Alopecurus myosuroides); experiment: Test A postemergence; conditions: Alopecurus myosuroides, post-emergence, 240 h; for pest or weed control at 125 g/ha: 125 g ai/ha, visual injury vs untreated controls after approx. 10 d, 0 = no effect, 100 = complete control, read-out: Blackgrass plant response rating (0 to 100 scale); for pest or weed control at 500 g/ha: 500 g ai/ha
Procedure, shortened: as §2

Kochia (Kochia scoparia) [12] = experiment: Test A postemergence; conditions: Bassia scoparia, post-emergence, 240 h; for pest or weed control at 125 g/ha: 125 g ai/ha, visual injury vs untreated controls after approx. 10 d, 0 = no effect, 100 = complete control, read-out: Kochia plant response rating (0 to 100 scale); for pest or weed control at 500 g/ha: 500 g ai/ha
Procedure, shortened: as §2

[13] = tested on: wheat (Triticum aestivum); experiment: Test A postemergence; conditions: Triticum aestivum, post-emergence, 240 h; for plant injury at 125 g/ha: 125 g ai/ha, postemergence, visual injury vs untreated controls after approx. 10 d, 0 = no effect, 100 = complete control, read-out: Wheat plant response rating (0 to 100 scale)
Procedure, shortened: as §2

[14] = tested on: ragweed (common ragweed, Ambrosia elatior); experiment: Test A postemergence; conditions: Ambrosia artemisiifolia, post-emergence, 240 h; for pest or weed control at 125 g/ha: 125 g ai/ha, visual injury vs untreated controls after approx. 10 d, 0 = no effect, 100 = complete control, read-out: Ragweed plant response rating (0 to 100 scale); for pest or weed control at 500 g/ha: 500 g ai/ha
Procedure, shortened: as §2

SMILES	pest or weed control at 250 g/ha [1]	pest or weed control at 250 g/ha (rice (Oryra sativa))	pest or weed control at 250 g/ha [2]	pest or weed control at 250 g/ha [3]	pest or weed control at 125 g/ha [4]	pest or weed control at 500 g/ha [4]	pest or weed control at 125 g/ha [5]	pest or weed control at 500 g/ha [5]	pest or weed control at 125 g/ha [6]	pest or weed control at 500 g/ha [6]	pest or weed control at 125 g/ha (Kochia (Kochia scoparia) [7])	pest or weed control at 500 g/ha (Kochia (Kochia scoparia) [7])	pest or weed control at 125 g/ha [8]	pest or weed control at 500 g/ha [8]	pest or weed control at 125 g/ha [9]	pest or weed control at 500 g/ha [9]	pest or weed control at 125 g/ha ([10]; postemergence)	pest or weed control at 125 g/ha ([11]; postemergence)	pest or weed control at 125 g/ha (Kochia (Kochia scoparia) [12]; postemergence)	plant injury at 125 g/ha [13]	further results
O=C1NC[C@H](c2ccc(C(F)(F)F)cc2)C1C(=O)Nc1c(F)cccc1CO (stereo partly drawn) [Compound 1243]	0%	0%	0%	0%	0%	0%	0%	0%	0%	0%	0%	0%	0%	0%	0%	0%	0%	0%	0%	0%	pest or weed control at 500 g/ha ([10]; postemergence, 0 to 100 scale, 0 is no effect, 100 is complete control, read-out: Ryegrass, Italian plant response rating): 0%; pest or weed control at 500 g/ha ([11]; postemergence, 0 to 100 scale, 0 is no effect, 100 is complete control, read-out: Blackgrass plant response rating): 0%; pest or weed control at 500 g/ha (Kochia (Kochia scoparia) [12]; postemergence, 0 to 100 scale, 0 is no effect, 100 is complete control, read-out: Kochia plant response rating): 0%; pest or weed control at 125 g/ha ([14]; postemergence): 0%; pest or weed control at 500 g/ha ([14]; postemergence, 0 to 100 scale, 0 is no effect, 100 is complete control, read-out: Ragweed plant response rating): 0%
Cc1cc([C@H]2CNC(=O)[C@@H]2C(=O)Nc2ccccc2S(C)(=O)=O)ccc1Cl [Compound 1246]	0%	0%	100%	0%	50%	70%	0%	0%	0%	50%	60%	80%	60%	80%	40%	60%	0%	0%	0%	0%	pest or weed control at 500 g/ha ([10]; Postemergence, visual injury, 0 to 100 scale (0 no effect, 100 complete control), approx. 10 d, read-out: Plant response rating, Ryegrass, Italian): 0%; pest or weed control at 500 g/ha ([11]; Postemergence, visual injury, 0 to 100 scale (0 no effect, 100 complete control), approx. 10 d, read-out: Plant response rating, Blackgrass): 40%; pest or weed control at 500 g/ha (Kochia (Kochia scoparia) [12]; Postemergence, visual injury, 0 to 100 scale (0 no effect, 100 complete control), approx. 10 d, read-out: Plant response rating, Kochia): 20%; plant injury at 500 g/ha ([13]; Postemergence, 500 g ai/ha, visual injury, 0 to 100 scale (0 no effect, 100 complete control), approx. 10 d, read-out: Plant response rating, Wheat): 40%; pest or weed control at 125 g/ha ([14]; postemergence): 10%; pest or weed control at 500 g/ha ([14]; Postemergence, visual injury, 0 to 100 scale (0 no effect, 100 complete control), approx. 10 d, read-out: Plant response rating, Ragweed): 60%
